Source: ChEMBL document CHEMBL1828549, “Novel C-4'' modified azithromycin analogs with remarkably enhanced activity against erythromycin-resistant Streptococcus pneumoniae: the synthesis and antimicrobial evaluation” (2011)
In brackets after ≈: the same amount, converted by molar mass.

How the values were obtained:
Format in all cases: functional
Streptococcus pneumoniae [1] = assay: Antibacterial activity against erythromycin-susceptible Streptococcus pneumoniae ATCC 49619 by the broth microdilution method
Streptococcus pneumoniae [2] = assay: Antibacterial activity against erythromycin-resistant Streptococcus pneumoniae B1 expressing erm gene by the broth microdilution method
Streptococcus pneumoniae [3] = assay: Antibacterial activity against erythromycin-resistant Streptococcus pneumoniae A22072 expressing mef gene by the broth microdilution method
Streptococcus pneumoniae [4] = assay: Antibacterial activity against erythromycin-resistant Streptococcus pneumoniae AB11 expressing erm and mef gene by the broth microdilution method
Staphylococcus aureus [5] = assay: Antibacterial activity against erythromycin-susceptible Staphylococcus aureus ATCC 25923 by the broth microdilution method
Staphylococcus aureus [6] = assay: Antibacterial activity against penicillin-resistant Staphylococcus aureus by the broth microdilution method
Staphylococcus aureus [7] = assay: Antibacterial activity against […] Staphylococcus aureus ATCC 29213 by the broth microdilution method

SMILES	MIC (Streptococcus pneumoniae [1]) [µg/mL]	MIC (Streptococcus pneumoniae [2]) [µg/mL]	MIC (Streptococcus pneumoniae [3]) [µg/mL]	MIC (Streptococcus pneumoniae [4]) [µg/mL]	MIC (Staphylococcus aureus [5]) [µg/mL]	MIC (Staphylococcus aureus [6]) [µg/mL]	MIC (Staphylococcus aureus [7]) [µg/mL]
CC[C@H]1OC(=O)[C@H](C)[C@@H](O[C@H]2C[C@@](C)(OC)[C@@H](OC(=O)NNC(=O)c3ccc(OC)cc3)[C@H](C)O2)[C@H](C)[C@@H](O[C@@H]2O[C@H](C)C[C@H](N(C)C)[C@H]2O)[C@](C)(O)C[C@@H](C)CN(C)[C@H](C)[C@H]2OC(=O)O[C@@]21C	4 (≈ 4.14 µM)	16 (≈ 16.5 µM)	0.25 (≈ 0.258 µM)	64 (≈ 66.2 µM)	2 (≈ 2.07 µM)	8 (≈ 8.27 µM)	32 (≈ 33.1 µM)
CC[C@H]1OC(=O)[C@H](C)[C@@H](O[C@H]2C[C@@](C)(OC)[C@@H](OC(=O)NNC(=O)c3ccccc3OC)[C@H](C)O2)[C@H](C)[C@@H](O[C@@H]2O[C@H](C)C[C@H](N(C)C)[C@H]2O)[C@](C)(O)C[C@@H](C)CN(C)[C@H](C)[C@H]2OC(=O)O[C@@]21C	1 (≈ 1.03 µM)	8 (≈ 8.27 µM)	0.5 (≈ 0.517 µM)	32 (≈ 33.1 µM)	4 (≈ 4.14 µM)	16 (≈ 16.5 µM)	16 (≈ 16.5 µM)
CC[C@H]1OC(=O)[C@H](C)[C@@H](O[C@H]2C[C@@](C)(OC)[C@@H](OC(=O)NNC(=O)c3ccc(OC)c(OC)c3)[C@H](C)O2)[C@H](C)[C@@H](O[C@@H]2O[C@H](C)C[C@H](N(C)C)[C@H]2O)[C@](C)(O)C[C@@H](C)CN(C)[C@H](C)[C@H]2OC(=O)O[C@@]21C	1 (≈ 1 µM)	32 (≈ 32.1 µM)	0.25 (≈ 0.251 µM)	64 (≈ 64.2 µM)	4 (≈ 4.01 µM)	1 (≈ 1 µM)	4 (≈ 4.01 µM)
CC[C@H]1OC(=O)[C@H](C)[C@@H](O[C@H]2C[C@@](C)(OC)[C@@H](OC(=O)NNC(=O)c3ccc(F)cc3)[C@H](C)O2)[C@H](C)[C@@H](O[C@@H]2O[C@H](C)C[C@H](N(C)C)[C@H]2O)[C@](C)(O)C[C@@H](C)CN(C)[C@H](C)[C@H]2OC(=O)O[C@@]21C	4 (≈ 4.19 µM)	32 (≈ 33.5 µM)	1 (≈ 1.05 µM)	64 (≈ 67 µM)	4 (≈ 4.19 µM)	4 (≈ 4.19 µM)	32 (≈ 33.5 µM)
CC[C@H]1OC(=O)[C@H](C)[C@@H](O[C@H]2C[C@@](C)(OC)[C@@H](OC(=O)NNC(=O)c3ccc(Cl)cc3)[C@H](C)O2)[C@H](C)[C@@H](O[C@@H]2O[C@H](C)C[C@H](N(C)C)[C@H]2O)[C@](C)(O)C[C@@H](C)CN(C)[C@H](C)[C@H]2OC(=O)O[C@@]21C	1 (≈ 1.03 µM)	32 (≈ 32.9 µM)	0.25 (≈ 0.257 µM)	64 (≈ 65.9 µM)	2 (≈ 2.06 µM)	16 (≈ 16.5 µM)	4 (≈ 4.12 µM)
CC[C@H]1OC(=O)[C@H](C)[C@@H](O[C@H]2C[C@@](C)(OC)[C@@H](OC(=O)NNC(=O)c3ccc(Br)cc3)[C@H](C)O2)[C@H](C)[C@@H](O[C@@H]2O[C@H](C)C[C@H](N(C)C)[C@H]2O)[C@](C)(O)C[C@@H](C)CN(C)[C@H](C)[C@H]2OC(=O)O[C@@]21C	1 (≈ 0.984 µM)	4 (≈ 3.94 µM)	0.12 (≈ 0.118 µM)	16 (≈ 15.7 µM)	2 (≈ 1.97 µM)	4 (≈ 3.94 µM)	1 (≈ 0.984 µM)
CC[C@H]1OC(=O)[C@H](C)[C@@H](O[C@H]2C[C@@](C)(OC)[C@@H](OC(=O)NNC(=O)c3ccc(Cl)cc3Cl)[C@H](C)O2)[C@H](C)[C@@H](O[C@@H]2O[C@H](C)C[C@H](N(C)C)[C@H]2O)[C@](C)(O)C[C@@H](C)CN(C)[C@H](C)[C@H]2OC(=O)O[C@@]21C	1 (≈ 0.994 µM)	4 (≈ 3.98 µM)	0.25 (≈ 0.249 µM)	16 (≈ 15.9 µM)	4 (≈ 3.98 µM)	16 (≈ 15.9 µM)	16 (≈ 15.9 µM)
CC[C@H]1OC(=O)[C@H](C)[C@@H](O[C@H]2C[C@@](C)(OC)[C@@H](OC(=O)NNC(=O)c3ccc([N+](=O)[O-])cc3)[C@H](C)O2)[C@H](C)[C@@H](O[C@@H]2O[C@H](C)C[C@H](N(C)C)[C@H]2O)[C@](C)(O)C[C@@H](C)CN(C)[C@H](C)[C@H]2OC(=O)O[C@@]21C	0.25 (≈ 0.255 µM)	16 (≈ 16.3 µM)	1 (≈ 1.02 µM)	32 (≈ 32.6 µM)	4 (≈ 4.07 µM)	4 (≈ 4.07 µM)	4 (≈ 4.07 µM)
CC[C@H]1OC(=O)[C@H](C)[C@@H](O[C@H]2C[C@@](C)(OC)[C@@H](OC(=O)NNC(=O)c3cc([N+](=O)[O-])cc([N+](=O)[O-])c3)[C@H](C)O2)[C@H](C)[C@@H](O[C@@H]2O[C@H](C)C[C@H](N(C)C)[C@H]2O)[C@](C)(O)C[C@@H](C)CN(C)[C@H](C)[C@H]2OC(=O)O[C@@]21C	0.5 (≈ 0.487 µM)	16 (≈ 15.6 µM)	0.25 (≈ 0.243 µM)	32 (≈ 31.2 µM)	4 (≈ 3.89 µM)	4 (≈ 3.89 µM)	4 (≈ 3.89 µM)
CC[C@H]1OC(=O)[C@H](C)[C@@H](O[C@H]2C[C@@](C)(OC)[C@@H](OC(=O)NCCNC(=O)c3ccc(OC)cc3)[C@H](C)O2)[C@H](C)[C@@H](O[C@@H]2O[C@H](C)C[C@H](N(C)C)[C@H]2O)[C@](C)(O)C[C@@H](C)CN(C)[C@H](C)[C@H]2OC(=O)O[C@@]21C	4 (≈ 4.02 µM)	32 (≈ 32.2 µM)	4 (≈ 4.02 µM)	64 (≈ 64.3 µM)	4 (≈ 4.02 µM)	4 (≈ 4.02 µM)	16 (≈ 16.1 µM)
